Assay: excess molar enthalpy (molar enthalpy of mixing); xn = mol fraction of the nth substance listed
Conditions: 298.15 K, 101 kPa, Liquid, ISOTHERMAL TITRATION CALORIMETRY

CCCCCCCCC(C)=O [2-decanone] + CCCCCCCCCCCC
Conditions	excess molar enthalpy [kcal/mol]
x1 = 0.0258	0.0318
x1 = 0.0503	0.059
x1 = 0.0736	0.0822
x1 = 0.0958	0.102
x1 = 0.1169	0.119
x1 = 0.1371	0.134
x1 = 0.1612	0.15
x1 = 0.1841	0.164
x1 = 0.2057	0.175
x1 = 0.2262	0.185
x1 = 0.2456	0.193
x1 = 0.2641	0.2
x1 = 0.2847	0.206
x1 = 0.3042	0.211
x1 = 0.3226	0.216
x1 = 0.3401	0.219
x1 = 0.3567	0.222
x1 = 0.3725	0.224
x1 = 0.3897	0.226
x1 = 0.406	0.227
x1 = 0.4215	0.228
x1 = 0.4362	0.228
x1 = 0.4501	0.227
x1 = 0.4634	0.227
x1 = 0.4782	0.226
x1 = 0.4923	0.225
x1 = 0.5055	0.224
x1 = 0.5182	0.222
x1 = 0.5302	0.22
x1 = 0.5416	0.218
x1 = 0.5543	0.216
x1 = 0.5663	0.214
x1 = 0.5777	0.211
x1 = 0.5885	0.209
x1 = 0.5987	0.206
x1 = 0.6049	0.204
x1 = 0.6179	0.201
x1 = 0.6311	0.197
x1 = 0.6448	0.193
x1 = 0.6592	0.188
x1 = 0.6742	0.183
x1 = 0.6899	0.178
x1 = 0.704	0.173
x1 = 0.7187	0.167
x1 = 0.7341	0.161
x1 = 0.7501	0.154
x1 = 0.7668	0.146
x1 = 0.7843	0.137
x1 = 0.8	0.13
x1 = 0.8163	0.121
x1 = 0.8334	0.112
x1 = 0.8511	0.102
x1 = 0.8696	0.0918
x1 = 0.889	0.0798
x1 = 0.9057	0.0686
x1 = 0.9231	0.0571
x1 = 0.9412	0.0442
x1 = 0.96	0.0308
x1 = 0.9796	0.0158

CCCCCCCCC(C)=O [2-decanone] + CCCCCCCCCCCCCC
Conditions	excess molar enthalpy [kcal/mol]
x1 = 0.0282	0.0361
x1 = 0.0549	0.0664
x1 = 0.0805	0.092
x1 = 0.1041	0.114
x1 = 0.1268	0.132
x1 = 0.1484	0.148
x1 = 0.1741	0.165
x1 = 0.1983	0.18
x1 = 0.2212	0.192
x1 = 0.2427	0.202
x1 = 0.2632	0.211
x1 = 0.2825	0.218
x1 = 0.3044	0.225
x1 = 0.325	0.23
x1 = 0.3444	0.235
x1 = 0.3628	0.238
x1 = 0.3801	0.241
x1 = 0.3965	0.243
x1 = 0.4145	0.245
x1 = 0.4313	0.245
x1 = 0.4472	0.246
x1 = 0.4623	0.246
x1 = 0.4765	0.245
x1 = 0.4901	0.245
x1 = 0.5029	0.244
x1 = 0.5151	0.242
x1 = 0.5292	0.241
x1 = 0.5425	0.239
x1 = 0.555	0.236
x1 = 0.5669	0.234
x1 = 0.5782	0.232
x1 = 0.5889	0.229
x1 = 0.5991	0.227
x1 = 0.6088	0.224
x1 = 0.6201	0.221
x1 = 0.6308	0.217
x1 = 0.6408	0.214
x1 = 0.6504	0.211
x1 = 0.6594	0.208
x1 = 0.668	0.205
x1 = 0.6762	0.202
x1 = 0.684	0.199
x1 = 0.7031	0.189
x1 = 0.7191	0.182
x1 = 0.7334	0.176
x1 = 0.7483	0.169
x1 = 0.7638	0.162
x1 = 0.7799	0.154
x1 = 0.7968	0.145
x1 = 0.8144	0.135
x1 = 0.8298	0.126
x1 = 0.8458	0.116
x1 = 0.8624	0.106
x1 = 0.8797	0.0939
x1 = 0.8977	0.0815
x1 = 0.9133	0.07
x1 = 0.9294	0.0578
x1 = 0.9461	0.0452
x1 = 0.9634	0.0311
x1 = 0.9814	0.016

CCCCCCCCC(C)=O [2-decanone] + CCCCCCCCCCCCCCCC
Conditions	excess molar enthalpy [kcal/mol]
x1 = 0.0372	0.048
x1 = 0.0716	0.087
x1 = 0.1038	0.119
x1 = 0.1337	0.145
x1 = 0.1617	0.167
x1 = 0.188	0.185
x1 = 0.2169	0.203
x1 = 0.2437	0.217
x1 = 0.2688	0.229
x1 = 0.2923	0.239
x1 = 0.3143	0.246
x1 = 0.335	0.253
x1 = 0.3574	0.258
x1 = 0.3784	0.263
x1 = 0.3981	0.266
x1 = 0.4166	0.268
x1 = 0.434	0.27
x1 = 0.4503	0.27
x1 = 0.4686	0.27
x1 = 0.4857	0.27
x1 = 0.5017	0.269
x1 = 0.5168	0.268
x1 = 0.531	0.266
x1 = 0.5443	0.264
x1 = 0.559	0.261
x1 = 0.5728	0.259
x1 = 0.5858	0.256
x1 = 0.598	0.253
x1 = 0.6095	0.25
x1 = 0.6204	0.247
x1 = 0.6324	0.243
x1 = 0.6436	0.239
x1 = 0.6542	0.236
x1 = 0.6641	0.232
x1 = 0.6735	0.228
x1 = 0.6824	0.224
x1 = 0.6964	0.217
x1 = 0.7102	0.21
x1 = 0.7245	0.204
x1 = 0.7393	0.197
x1 = 0.7521	0.191
x1 = 0.7655	0.184
x1 = 0.7793	0.176
x1 = 0.7936	0.168
x1 = 0.8084	0.159
x1 = 0.8238	0.149
x1 = 0.8372	0.14
x1 = 0.8511	0.13
x1 = 0.8654	0.12
x1 = 0.8802	0.109
x1 = 0.8955	0.0966
x1 = 0.9114	0.0837
x1 = 0.9251	0.0722
x1 = 0.9391	0.0598
x1 = 0.9537	0.0461
x1 = 0.9686	0.0318
x1 = 0.9841	0.0163

CCCCCOCCCCC [dipentyl ether] + CCCCCCCCCCCC
Conditions	excess molar enthalpy [kcal/mol]
x1 = 0.0242	0.00454
x1 = 0.0473	0.00884
x1 = 0.0693	0.0122
x1 = 0.0903	0.0155
x1 = 0.1104	0.0184
x1 = 0.1296	0.021
x1 = 0.148	0.0234
x1 = 0.1657	0.0256
x1 = 0.1869	0.028
x1 = 0.2071	0.0301
x1 = 0.2262	0.032
x1 = 0.2445	0.0337
x1 = 0.2619	0.0351
x1 = 0.2786	0.0363
x1 = 0.2989	0.0378
x1 = 0.3181	0.039
x1 = 0.3363	0.0399
x1 = 0.3535	0.0409
x1 = 0.3699	0.0416
x1 = 0.3855	0.0423
x1 = 0.4003	0.0425
x1 = 0.4144	0.0428
x1 = 0.431	0.0433
x1 = 0.4466	0.0433
x1 = 0.4614	0.0435
x1 = 0.4754	0.0435
x1 = 0.4887	0.0435
x1 = 0.5014	0.0433
x1 = 0.5129	0.0433
x1 = 0.5241	0.0433
x1 = 0.5358	0.043
x1 = 0.5481	0.043
x1 = 0.5609	0.0428
x1 = 0.5743	0.0425
x1 = 0.5884	0.0423
x1 = 0.6031	0.0418
x1 = 0.6161	0.0413
x1 = 0.6297	0.0409
x1 = 0.644	0.0402
x1 = 0.6589	0.0397
x1 = 0.6745	0.0387
x1 = 0.6908	0.0378
x1 = 0.7056	0.0366
x1 = 0.721	0.0354
x1 = 0.7371	0.0342
x1 = 0.7539	0.0327
x1 = 0.7715	0.0313
x1 = 0.79	0.0294
x1 = 0.8057	0.028
x1 = 0.8221	0.0261
x1 = 0.8391	0.0241
x1 = 0.8569	0.022
x1 = 0.8754	0.0196
x1 = 0.8947	0.0167
x1 = 0.9107	0.0146
x1 = 0.9273	0.0122
x1 = 0.9445	0.00956
x1 = 0.9623	0.00645
x1 = 0.9808	0.00335

CCCCCOCCCCC [dipentyl ether] + CCCCCCCCCCCCCC
Conditions	excess molar enthalpy [kcal/mol]
x1 = 0.0299	0.00693
x1 = 0.0581	0.0129
x1 = 0.0847	0.0182
x1 = 0.1099	0.0227
x1 = 0.1337	0.0265
x1 = 0.1562	0.0304
x1 = 0.1776	0.0335
x1 = 0.198	0.0361
x1 = 0.22	0.0392
x1 = 0.2447	0.0416
x1 = 0.266	0.044
x1 = 0.2862	0.0459
x1 = 0.3054	0.0473
x1 = 0.3235	0.0485
x1 = 0.3407	0.0497
x1 = 0.357	0.0507
x1 = 0.3761	0.0519
x1 = 0.394	0.0526
x1 = 0.411	0.0531
x1 = 0.427	0.0535
x1 = 0.4422	0.0538
x1 = 0.4566	0.054
x1 = 0.4702	0.0543
x1 = 0.4832	0.0543
x1 = 0.4927	0.0543
x1 = 0.5031	0.0545
x1 = 0.5139	0.0545
x1 = 0.5253	0.0547
x1 = 0.5371	0.0545
x1 = 0.5494	0.0545
x1 = 0.5604	0.0543
x1 = 0.5718	0.054
x1 = 0.5838	0.0535
x1 = 0.5962	0.0533
x1 = 0.6092	0.0528
x1 = 0.6228	0.0521
x1 = 0.6369	0.0511
x1 = 0.6502	0.0507
x1 = 0.664	0.0497
x1 = 0.6784	0.0488
x1 = 0.6934	0.0476
x1 = 0.7092	0.0464
x1 = 0.7256	0.0449
x1 = 0.7398	0.0435
x1 = 0.7546	0.0421
x1 = 0.7699	0.0404
x1 = 0.7859	0.0382
x1 = 0.8026	0.0361
x1 = 0.8199	0.0337
x1 = 0.8353	0.0313
x1 = 0.8513	0.0289
x1 = 0.8679	0.0263
x1 = 0.8852	0.0234
x1 = 0.9032	0.0203
x1 = 0.918	0.0177
x1 = 0.9333	0.0146
x1 = 0.9491	0.0112
x1 = 0.9655	0.00765
x1 = 0.9824	0.00406

CCCCCOCCCCC [dipentyl ether] + CCCCCCCCCCCCCCCC
Conditions	excess molar enthalpy [kcal/mol]
x1 = 0.0349	0.00884
x1 = 0.0674	0.0165
x1 = 0.0979	0.0229
x1 = 0.1264	0.0287
x1 = 0.1531	0.0335
x1 = 0.1783	0.0378
x1 = 0.2066	0.0423
x1 = 0.233	0.0461
x1 = 0.2577	0.0495
x1 = 0.2809	0.0523
x1 = 0.3027	0.0545
x1 = 0.3231	0.0564
x1 = 0.3459	0.0583
x1 = 0.3673	0.0598
x1 = 0.3873	0.0612
x1 = 0.4061	0.0621
x1 = 0.4238	0.0629
x1 = 0.4405	0.0633
x1 = 0.4593	0.0638
x1 = 0.4768	0.0641
x1 = 0.4933	0.0643
x1 = 0.5087	0.0643
x1 = 0.5158	0.0645
x1 = 0.5271	0.0645
x1 = 0.5389	0.0643
x1 = 0.5491	0.0643
x1 = 0.5598	0.0641
x1 = 0.5706	0.0638
x1 = 0.5823	0.0633
x1 = 0.5943	0.0629
x1 = 0.6067	0.0624
x1 = 0.6197	0.0617
x1 = 0.6333	0.0607
x1 = 0.645	0.06
x1 = 0.6527	0.059
x1 = 0.6699	0.0578
x1 = 0.6831	0.0566
x1 = 0.6968	0.0552
x1 = 0.7111	0.0535
x1 = 0.7238	0.0519
x1 = 0.737	0.0504
x1 = 0.7506	0.0485
x1 = 0.7648	0.0464
x1 = 0.7795	0.0442
x1 = 0.7984	0.0416
x1 = 0.8182	0.039
x1 = 0.8315	0.0363
x1 = 0.8512	0.0332
x1 = 0.8718	0.0301
x1 = 0.8935	0.0265
x1 = 0.9162	0.0227
x1 = 0.9292	0.0196
x1 = 0.9425	0.0163
x1 = 0.9563	0.0124
x1 = 0.9704	0.0086
x1 = 0.985	0.00454

Reference: the NIST ThermoML archive (doi:10.1016/j.jct.2010.11.004)
